Test results from EP0093484A2, “Antibacterial monic acid derivatives” (BEECHAM GROUP PLC, priority 1982, dated 1983).
Converted amounts (≈) assume the structure as drawn. Read-outs that look alike come from different tables or passages of the source.

Columns and labels:
[1] = system: Strep. agalactiae SPA1; assay: Veterinary bacteria, MIC by two fold serial dilution in agar
Method: (§1) The activity of the compounds of the Examples against various organisms important in veterinary infections was determined using two fold serial dilutions in Diagnostic Sensitivity Test Agar inoculated with 10^4 organisms.

[2] = system: M. suipneumoniae NCTC 10110; assay: Anti-mycoplasmal activity, MIC in Friis broth agarose; assay type: cell-based; conditions: Friis broth solidified with 0.9% agarose, 6 days incubation at 37°C
[3] = system: S. dublin S7; assay: Veterinary bacteria, MIC by two fold serial dilution in agar
Method: as §1

[4] = system: M. gallisepticum S6; assay: Anti-mycoplasmal activity, MIC in Friis broth agarose; assay type: cell-based; conditions: Friis broth solidified with 0.9% agarose, 6 days incubation at 37°C
[5] = system: Erysipelothrix rhusiopathiae NCTC 8163; assay: Veterinary bacteria, MIC by two fold serial dilution in agar
Method: as §1

[6] = system: Staph. aureus Oxford; assay: as above
Method: as §1

[7] = system: M. suipneumoniae Str. 11; assay: Anti-mycoplasmal activity, MIC in Friis broth agarose; assay type: cell-based; conditions: Friis broth solidified with 0.9% agarose, 6 days incubation at 37°C
[8] = system: Strep. uberis SPU1; assay: Veterinary bacteria, MIC by two fold serial dilution in agar
Method: as §1

[9] = system: Bacillus subtilis 6633; assay: Human bacteria, MIC by serial dilution in nutrient agar; assay type: cell-based; conditions: nutrient agar with 5% chocolated horse blood, 18 hours at 37°C
[10] = system: M. suipneumoniae J2206/183b; assay: Anti-mycoplasmal activity, MIC in Friis broth agarose; assay type: cell-based; conditions: Friis broth solidified with 0.9% agarose, 6 days incubation at 37°C
[11] = system: M. hyosynoviae ATCC 25591; assay: as above; assay type: cell-based; conditions: Friis broth solidified with 0.9% agarose, 6 days incubation at 37°C
[12] = system: Strep. agalactiae 2788-B; assay: Human bacteria, MIC by serial dilution in nutrient agar; assay type: cell-based; conditions: nutrient agar with 5% chocolated horse blood, 18 hours at 37°C
[13] = system: M. hyorhinis ATCC 25021; assay: Anti-mycoplasmal activity, MIC in Friis broth agarose; assay type: cell-based; conditions: Friis broth solidified with 0.9% agarose, 6 days incubation at 37°C
[14] = system: Staph. aureus Oxford; assay: Human bacteria, MIC by serial dilution in nutrient agar; assay type: cell-based; conditions: Staph. aureus Oxford (human panel), nutrient agar with 5% chocolated horse blood, 18 hours at 37°C
[15] = system: Past. haemolytica PA5; assay: Veterinary bacteria, MIC by two fold serial dilution in agar
Method: as §1

[16] = system: Strep. suis (group D) SPS11; assay: as above
Method: as §1

[17] = Strep. agalactiae SPA1, Diagnostic Sensitivity Test Agar, 18 hours at 37°C
[18] = S. dublin S7, Diagnostic Sensitivity Test Agar, 18 hours at 37°C
[19] = Erysipelothrix rhusiopathiae NCTC 8163, Diagnostic Sensitivity Test Agar, 18 hours at 37°C
[20] = Staph. aureus Oxford (veterinary panel), Diagnostic Sensitivity Test Agar, 18 hours at 37°C
[21] = Strep. uberis SPU1, Diagnostic Sensitivity Test Agar, 18 hours at 37°C
[22] = Past. haemolytica PA5, Diagnostic Sensitivity Test Agar, 18 hours at 37°C
[23] = Strep. suis (group D) SPS11, Diagnostic Sensitivity Test Agar, 18 hours at 37°C
[24] = Streptococcus agalactiae, SPA1, 18 h
[25] = Mesomycoplasma hyopneumoniae, NCTC10110, 144 h, read-out: MIC
[26] = Mycoplasmoides gallisepticum, 144 h, read-out: MIC
[27] = Erysipelothrix rhusiopathiae, NCTC8163, 18 h
[28] = Mesomycoplasma hyopneumoniae, 144 h, read-out: MIC
[29] = Streptococcus uberis, SPU1, 18 h
[30] = Streptococcus agalactiae, read-out: MIC
[31] = Mesomycoplasma hyorhinis, ATCC25021, 144 h, read-out: MIC
[32] = Staphylococcus aureus, read-out: MIC
[33] = Mannheimia haemolytica, PA5, 18 h

Molecule | MIC [1, 24] | MIC [2, 25] | MIC ([3]; Salmonella enterica, S7, 18 h) | MIC [4, 26] | MIC [5, 27] | MIC ([6]; Staphylococcus aureus, 18 h) | MIC [7, 28] | MIC [8, 29] | MIC ([9]; read-out: MIC) | MIC [10, 28] | MIC ([11]; 144 h, read-out: MIC) | MIC [12, 30] | MIC [13, 31] | MIC [14, 32] | MIC [15, 33] | MIC ([16]; Streptococcus suis, 18 h) | also measured
1-(p-Methylsulfinylphenyl)ethyl monate A [Example 8] | – | – | – | – | – | – | – | – | – | – | – | – | – | – | – | – | MIC [1, 17]: >80 µg/mL; MIC [2]: 2.5 µg/mL; MIC [3, 18]: >80 µg/mL; MIC [4]: 10 µg/mL; MIC [5, 19]: >80 µg/mL; MIC [6, 20]: 20 µg/mL; MIC [7]: 1.0 µg/mL; MIC [8, 21]: .625 µg/mL; MIC [9]: 4.0 µg/mL; MIC [10]: 2.5 µg/mL; MIC [11]: 0.5 µg/mL; MIC [12]: 8.0 µg/mL; MIC [13]: 1.0 µg/mL; MIC [14]: 16 µg/mL; MIC [15, 22]: 80 µg/mL; MIC [16, 23]: 80 µg/mL
CSc1ccc(COC(=O)C=C(C)CC2OCC(CC3OC3C(C)C(C)O)C(O)C2O)cc1 (centres unmarked) [Example 1, p-Methylthiobenzyl monate A] | 0.312 µg/mL (≈ 0.649 µM) | 0.5 µg/mL (≈ 1.04 µM) | > 80 µg/mL | 2.5 µg/mL (≈ 5.2 µM) | 10 µg/mL (≈ 20.8 µM) | 0.156 µg/mL (≈ 0.325 µM) | 0.25 µg/mL (≈ 0.52 µM) | 0.039 µg/mL (≈ 0.0811 µM) | 0.25 µg/mL (≈ 0.52 µM) | 0.5 µg/mL (≈ 1.04 µM) | 0.05 µg/mL (≈ 0.104 µM) | 1 µg/mL (≈ 2.08 µM) | 0.25 µg/mL (≈ 0.52 µM) | 0.5 µg/mL (≈ 1.04 µM) | 0.312 µg/mL (≈ 0.649 µM) | 2.5 µg/mL (≈ 5.2 µM) | –
CC(=CC(=O)OCc1ccc([S+](C)[O-])cc1)CC1OCC(CC2OC2C(C)C(C)O)C(O)C1O (centres unmarked) [Example 2, p- Methylsulphinylbenzyl monate A] | 0.625 µg/mL (≈ 1.26 µM) | 0.25 µg/mL (≈ 0.503 µM) | > 80 µg/mL | 1 µg/mL (≈ 2.01 µM) | 20 µg/mL (≈ 40.3 µM) | 1.25 µg/mL (≈ 2.52 µM) | 0.25 µg/mL (≈ 0.503 µM) | 0.156 µg/mL (≈ 0.314 µM) | 1 µg/mL (≈ 2.01 µM) | 0.25 µg/mL (≈ 0.503 µM) | 0.05 µg/mL (≈ 0.101 µM) | 1 µg/mL (≈ 2.01 µM) | 0.1 µg/mL (≈ 0.201 µM) | 2.5 µg/mL (≈ 5.03 µM) | 5 µg/mL (≈ 10.1 µM) | 2.5 µg/mL (≈ 5.03 µM) | –
CC(=CC(=O)OCc1ccc(S(C)(=O)=O)cc1)CC1OCC(CC2OC2C(C)C(C)O)C(O)C1O (centres unmarked) [Example 3, p-Methylsulphonylbenzyl monate A] | 0.625 µg/mL (≈ 1.22 µM) | 0.25 µg/mL (≈ 0.488 µM) | > 80 µg/mL | 0.5 µg/mL (≈ 0.975 µM) | 80 µg/mL (≈ 156 µM) | 1.25 µg/mL (≈ 2.44 µM) | 0.1 µg/mL (≈ 0.195 µM) | 0.312 µg/mL (≈ 0.609 µM) | 0.5 µg/mL (≈ 0.975 µM) | 0.25 µg/mL (≈ 0.488 µM) | 0.025 µg/mL (≈ 0.0488 µM) | 0.5 µg/mL (≈ 0.975 µM) | 0.05 µg/mL (≈ 0.0975 µM) | 1 µg/mL (≈ 1.95 µM) | 5 µg/mL (≈ 9.75 µM) | 2.5 µg/mL (≈ 4.88 µM) | –
CC(=CC(=O)OCc1cccc([S+](C)[O-])c1)CC1OCC(CC2OC2C(C)C(C)O)C(O)C1O (centres unmarked) [Example 6, m-Methylsulfinylbenzyl monate A] | 20 µg/mL (≈ 40.3 µM) | 10 µg/mL (≈ 20.1 µM) | > 80 µg/mL | > 10 µg/mL | > 80 µg/mL | 5 µg/mL (≈ 10.1 µM) | 5 µg/mL (≈ 10.1 µM) | 5 µg/mL (≈ 10.1 µM) | 12.5 µg/mL (≈ 25.2 µM) | 10 µg/mL (≈ 20.1 µM) | 5 µg/mL (≈ 10.1 µM) | 25 µg/mL (≈ 50.3 µM) | 5 µg/mL (≈ 10.1 µM) | 2.5 µg/mL (≈ 5.03 µM) | 80 µg/mL (≈ 161 µM) | > 80 µg/mL | –
CC(=CC(=O)OCc1cccc(S(C)(=O)=O)c1)CC1OCC(CC2OC2C(C)C(C)O)C(O)C1O (centres unmarked) [Example 7, m-Methylsulfonylbenzyl monate A] | 2.5 µg/mL (≈ 4.88 µM) | 1 µg/mL (≈ 1.95 µM) | > 80 µg/mL | 5 µg/mL (≈ 9.75 µM) | > 80 µg/mL | 2.5 µg/mL (≈ 4.88 µM) | 0.5 µg/mL (≈ 0.975 µM) | 0.625 µg/mL (≈ 1.22 µM) | 2.5 µg/mL (≈ 4.88 µM) | 1 µg/mL (≈ 1.95 µM) | 0.25 µg/mL (≈ 0.488 µM) | 5 µg/mL (≈ 9.75 µM) | 0.5 µg/mL (≈ 0.975 µM) | 2.5 µg/mL (≈ 4.88 µM) | 10 µg/mL (≈ 19.5 µM) | 20 µg/mL (≈ 39 µM) | –
CC(=CC(=O)OC(C)c1ccc(S(C)(=O)=O)cc1)CC1OCC(CC2OC2C(C)C(C)O)C(O)C1O (centres unmarked) [Example 9, 1-(p-Methylsulfonylphenyl)ethyl monate A] | 80 µg/mL (≈ 152 µM) | 1 µg/mL (≈ 1.9 µM) | > 80 µg/mL | 10 µg/mL (≈ 19 µM) | 80 µg/mL (≈ 152 µM) | 10 µg/mL (≈ 19 µM) | 0.5 µg/mL (≈ 0.949 µM) | 0.312 µg/mL (≈ 0.592 µM) | 1 µg/mL (≈ 1.9 µM) | 1 µg/mL (≈ 1.9 µM) | 0.25 µg/mL (≈ 0.475 µM) | 8 µg/mL (≈ 15.2 µM) | 0.5 µg/mL (≈ 0.949 µM) | 4 µg/mL (≈ 7.6 µM) | 40 µg/mL (≈ 76 µM) | 40 µg/mL (≈ 76 µM) | –
m-Methylthiobenzyl monate A [Example 5] | – | – | – | – | – | – | – | – | – | – | – | – | – | – | – | – | MIC [1, 17]: .312 µg/mL; MIC [2]: 0.5 µg/mL; MIC [3, 18]: >80 µg/mL; MIC [4]: 5.0 µg/mL; MIC [5, 19]: 5 µg/mL; MIC [6, 20]: .156 µg/mL; MIC [7]: 0.25 µg/mL; MIC [8, 21]: .07 µg/mL; MIC [9]: 0.1 µg/mL; MIC [10]: 0.5 µg/mL; MIC [11]: 0.5 µg/mL; MIC [12]: 1.0 µg/mL; MIC [13]: 0.25 µg/mL; MIC [14]: 0.5 µg/mL; MIC [15, 22]: 10 µg/mL; MIC [16, 23]: 1.25 µg/mL
